Values joined by “and” are separate entries in the source; they are usually repeats but may differ in a detail not shown here. Identical values can stand only once.
Experiments:
Assay type in all cases: cell-based, human
22Rv1 cells = assay: Growth assay (SRB), 22Rv1
Protocol: (§1) To determine the IC50 of drug treatments on growth, cells were seeded in 96-well culture plates. Two days after seeding, the cells were treated with increasing concentrations of drugs and incubated for 4 days. Cell number was determined using the SRB assay (Skehan et al, [1990]), and IC50 values were calculated using non-linear regression curve fitting in GraphPad Prism v10. For all other growth experiments, cells were seeded into 96-well plates, and appropriate drugs were added 2 days after seeding. Cells were then incubated in an IncuCyte Zoom live-cell imager, with cell confluency measured every 6 h. Cell doubling times were determined by non-linear curve fitting (exponential growth equation) in GraphPad Prism v10.

22Rv1-SamR cells = assay: Growth assay (SRB), Samuraciclib-resistant 22Rv1; settings: for % Growth: 22Rv1 SamR, 4 days, biological reps
Protocol: as §1

MCF7 cells = assay: Growth assay (SRB), MCF7; settings: for % Growth: biological reps
Summary of the method: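 For the SRB assay, cells were treated 2 days after seeding with increasing drug concentrations for 4 days, and IC50 came from non-linear regression. For the IncuCyte runs, drugs were added 2 days post-seeding, confluency was imaged every 6 h, and doubling times were fitted to an exponential growth equation.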

MCF7-CDK7-D97N cells = assay: Growth assay (SRB), MCF7 CDK7-D97N knock-in; settings: for % Growth: MCF7 CDK7 D99N, biological reps
Protocol: as §1
(§2) Alt-R^TM S.p. Cas9 nuclease V3, Alt-R CRISPR-Cas9 crRNA, TracrRNA and the donor templates were obtained from Integrated DNA Technologies. […] Cells were treated with 0.7 µM of Alt-R HDR Enhancer V2 to improve HRD efficiency. Sequences of the CRISPRs in the crRNA and the donor templates are shown in the Reagents and tools table. Donor templates were designed to include non-coding substitutions to aid genome DNA PCR for identifying knock-in events and to facilitate cloning; these substitutions are noted in the Reagents and tools table.

22Rv1-CDK7-D97N cells = assay: Growth assay (SRB), 22Rv1 CDK7-D97N knock-in pool; settings: 22Rv1 CDK7 D99N
Protocol: as §1, §2

LNCaP cells = assay: Growth assay (SRB), LNCaP
Protocol: as §1

LNCaP-CDK7-D97N cells = assay: Growth assay (SRB), LNCaP CDK7-D97N knock-in; settings: LNCaP CDK7 D99N
Protocol: as §1, §2

Q: Which “% Growth” value (22Rv1 cells; 22Rv1, Log10 Conc. (nM) 0.09) does the source give for `CC(C)c1cnn2c(NCc3ccccc3-n3cccn3)nc(OC3CCCNC3)nc12` (centres unmarked) [LDC4297] here?
A: 67.07% and 96.13%

Q: What about the “% Growth” value (22Rv1 cells; 22Rv1, Log10 Conc. (nM) 0.69) of the same compound?
A: 66.51% and 88.13%

Q: And the “% Growth” value (22Rv1 cells; 22Rv1, Log10 Conc. (nM) 1.29)?
A: 42.25% and 51.76%

Q: And the “% Growth” value (22Rv1 cells; 22Rv1, Log10 Conc. (nM) 1.89)?
A: 9.89% and 17.57%

Q: What about the “% Growth” value (22Rv1 cells; 22Rv1, Log10 Conc. (nM) 2.49) of the same compound?
A: 11.47% and 9.07%

Q: What about the “% Growth” value (22Rv1 cells; 22Rv1, Log10 Conc. (nM) 3.10) of the same compound?
A: 2.69% and 4.03%

Q: And the “% Growth” value (22Rv1 cells; 22Rv1, Log10 Conc. (nM) 3.70)?
A: -4.63% and -0.97%

Q: What about the “% Growth” value (22Rv1 cells; 22Rv1, Log10 Conc. (nM) 4.30) of the same compound?
A: -12.52% and -9.59%

Q: What about the “% Growth” value (22Rv1 cells; 22Rv1, Log10 Conc. (nM) -0.52) of the same compound?
A: 95.29% and 95.79%

Q: And the “% Growth” value (22Rv1 cells; 22Rv1, Log10 Conc. (nM) 0.09, 4 days, biological reps)?
A: 97.43% and 97.15%

Q: What about the “% Growth” value (22Rv1 cells; 22Rv1, Log10 Conc. (nM) 0.69, 4 days, biological reps) of the same compound?
A: 91.35% and 89.50%

Q: What about the “% Growth” value (22Rv1 cells; 22Rv1, Log10 Conc. (nM) 1.29, 4 days, biological reps) of the same compound?
A: 69.89% and 67.14%

Q: What about the “% Growth” value (22Rv1 cells; 22Rv1, Log10 Conc. (nM) 1.89, 4 days, biological reps) of the same compound?
A: 34.11% and 32.16%

Q: What about the “% Growth” value (22Rv1 cells; 22Rv1, Log10 Conc. (nM) 2.49, 4 days, biological reps) of the same compound?
A: 25.80% and 22.21%

Q: What about the “% Growth” value (22Rv1 cells; 22Rv1, Log10 Conc. (nM) 3.10, 4 days, biological reps) of the same compound?
A: 19.07% and 18.11%

Q: What about the “% Growth” value (22Rv1 cells; 22Rv1, Log10 Conc. (nM) 3.70, 4 days, biological reps) of the same compound?
A: 12.19% and 10.17%

Q: What about the “% Growth” value (22Rv1 cells; 22Rv1, Log10 Conc. (nM) 4.30, 4 days, biological reps) of the same compound?
A: -1.74% and -5.36%

Q: And the “% Growth” value (22Rv1 cells; 22Rv1, Log10 Conc. (nM) -0.52, 4 days, biological reps)?
A: 96.00% and 93.75%

Q: And the “Resistance (Fold), fold increase in IC50 of 22Rv1-SamR relative to 22Rv1” value (22Rv1-SamR cells; 22Rv1-SamR vs 22Rv1)?
A: 45 fold

Q: What about the “% Growth” value (22Rv1-SamR cells; Log10 Conc. (nM) 0.09) of the same compound?
A: 97.61% and 104.31%

Q: And the “% Growth” value (22Rv1-SamR cells; Log10 Conc. (nM) 0.69)?
A: 95.33% and 95.56%

Q: What about the “% Growth” value (22Rv1-SamR cells; Log10 Conc. (nM) 1.29) of the same compound?
A: 91.02% and 93.49%

Q: What about the “% Growth” value (22Rv1-SamR cells; Log10 Conc. (nM) 1.89) of the same compound?
A: 85.93% and 89.36%

Q: And the “% Growth” value (22Rv1-SamR cells; Log10 Conc. (nM) 2.49)?
A: 74.46% and 80.17%

Q: And the “% Growth” value (22Rv1-SamR cells; Log10 Conc. (nM) 3.10)?
A: 45.54% and 51.37%

Q: And the “% Growth” value (22Rv1-SamR cells; Log10 Conc. (nM) 3.70)?
A: 16.52% and 21.74%

Q: What about the “% Growth” value (22Rv1-SamR cells; Log10 Conc. (nM) 4.30) of the same compound?
A: -6.89% and -7.33%

Q: What about the “% Growth” value (22Rv1-SamR cells; Log10 Conc. (nM) -0.52) of the same compound?
A: 95.69% and 97.10%

Q: And the IC50 (MCF7 cells; 4 days, SRB)?
A: 7.3 nM

Q: And the “% Growth” value (MCF7 cells; Log10 Conc. (nM) 0.09, 4 days)?
A: 91.12% and 94.99% and 92.39%

Q: What about the “% Growth” value (MCF7 cells; Log10 Conc. (nM) 0.69, 4 days) of the same compound?
A: 52.29% and 66.02% and 70.05%

Q: What about the “% Growth” value (MCF7 cells; Log10 Conc. (nM) 1.29, 4 days) of the same compound?
A: 18.87% and 28.85% and 28.07%

Q: And the “% Growth” value (MCF7 cells; Log10 Conc. (nM) 2.49, 4 days)?
A: 9.82% and 18.59% and 16.86%

Q: And the “% Growth” value (MCF7 cells; Log10 Conc. (nM) 3.70, 4 days)?
A: -7.82% and -0.67% and -1.06%

Q: What about the “% Growth” value (MCF7 cells; Log10 Conc. (nM) 4.30, 4 days) of the same compound?
A: -10.31% and -1.91% and -1.69%

Q: And the “% Growth” value (MCF7 cells; Log10 Conc. (nM) -0.52, 4 days)?
A: 95.85% and 97.88% and 93.10%

Q: And the “Resistance (Fold)” value (MCF7-CDK7-D97N cells; MCF7-CDK7-D97N vs MCF7 WT)?
A: 38.8 fold

Q: And the IC50 (MCF7-CDK7-D97N cells; MCF7-CDK7-D97N, 4 days, SRB)?
A: 284 nM

Q: What about the “% Growth” value (MCF7-CDK7-D97N cells; Log10 Conc. (nM) 0.09, 4 days) of the same compound?
A: 97.54% and 102.97% and 111.53%

Q: And the “% Growth” value (MCF7-CDK7-D97N cells; Log10 Conc. (nM) 0.69, 4 days)?
A: 89.88% and 95.95% and 106.23%

Q: What about the “% Growth” value (MCF7-CDK7-D97N cells; Log10 Conc. (nM) 1.29, 4 days) of the same compound?
A: 86.58% and 89.18% and 107.98%

Q: What about the “% Growth” value (MCF7-CDK7-D97N cells; Log10 Conc. (nM) 1.89, 4 days) of the same compound?
A: 78.14% and 75.55% and 98.88%

Q: What about the “% Growth” value (MCF7-CDK7-D97N cells; Log10 Conc. (nM) 2.49, 4 days) of the same compound?
A: 36.43% and 41.92% and 46.72%

Q: What about the “% Growth” value (MCF7-CDK7-D97N cells; Log10 Conc. (nM) 3.10, 4 days) of the same compound?
A: 15.57% and 25.31% and 26.65%

Q: What about the “% Growth” value (MCF7-CDK7-D97N cells; Log10 Conc. (nM) -0.52, 4 days) of the same compound?
A: 94.29% and 106.05% and 120.50%

Q: And the “% Growth” value (22Rv1-CDK7-D97N cells; Log10 Conc. (nM) 0.09)?
A: 99.08% and 97.65%

Q: What about the “% Growth” value (22Rv1-CDK7-D97N cells; Log10 Conc. (nM) 0.69) of the same compound?
A: 98.24% and 92.35%

Q: What about the “% Growth” value (22Rv1-CDK7-D97N cells; Log10 Conc. (nM) 1.29) of the same compound?
A: 97.25% and 79.61%

Q: And the “% Growth” value (22Rv1-CDK7-D97N cells; Log10 Conc. (nM) 2.49)?
A: 79.12% and 58.88%

Q: And the “% Growth” value (22Rv1-CDK7-D97N cells; Log10 Conc. (nM) 3.10)?
A: 40.19% and 24.40%

Q: What about the “% Growth” value (22Rv1-CDK7-D97N cells; Log10 Conc. (nM) 4.30) of the same compound?
A: -8.93% and -12.96%

Q: What about the “% Growth” value (22Rv1-CDK7-D97N cells; Log10 Conc. (nM) -0.52) of the same compound?
A: 101.69% and 97.12%

Q: And the “% Growth” value (LNCaP cells; Log10 Conc. (nM) 0.09)?
A: 103.68% and 97.62%

Q: What about the “% Growth” value (LNCaP cells; Log10 Conc. (nM) 0.69) of the same compound?
A: 77.76% and 65.52%

Q: And the “% Growth” value (LNCaP cells; Log10 Conc. (nM) 1.29)?
A: 48.12% and 34.31%

Q: What about the “% Growth” value (LNCaP cells; Log10 Conc. (nM) 3.10) of the same compound?
A: 4.14% and -5.07%

Q: And the “% Growth” value (LNCaP cells; Log10 Conc. (nM) 3.70)?
A: -12.69% and -19.92%

Q: What about the “% Growth” value (LNCaP cells; Log10 Conc. (nM) 4.30) of the same compound?
A: -12.08% and -21.22%

Q: What about the “% Growth” value (LNCaP cells; Log10 Conc. (nM) -0.52) of the same compound?
A: 92.16% and 87.19%

Q: And the “% Growth” value (LNCaP-CDK7-D97N cells; Log10 Conc. (nM) 0.09)?
A: 106.48% and 87.66%

Q: And the “% Growth” value (LNCaP-CDK7-D97N cells; Log10 Conc. (nM) 0.69)?
A: 87.77% and 86.95%

Q: And the “% Growth” value (LNCaP-CDK7-D97N cells; Log10 Conc. (nM) 1.29)?
A: 78.55% and 76.66%

Q: What about the “% Growth” value (LNCaP-CDK7-D97N cells; Log10 Conc. (nM) 1.89) of the same compound?
A: 68.25% and 64.95%

Q: And the “% Growth” value (LNCaP-CDK7-D97N cells; Log10 Conc. (nM) 2.49)?
A: 52.79% and 47.15%

Q: And the “% Growth” value (LNCaP-CDK7-D97N cells; Log10 Conc. (nM) 3.10)?
A: 25.80% and 16.35%

Q: And the “% Growth” value (LNCaP-CDK7-D97N cells; Log10 Conc. (nM) 3.70)?
A: 4.77% and -4.61%

Q: And the “% Growth” value (LNCaP-CDK7-D97N cells; Log10 Conc. (nM) 4.30)?
A: -8.16% and -14.41%

Q: And the “% Growth” value (LNCaP-CDK7-D97N cells; Log10 Conc. (nM) -0.52)?
A: 106.84% and 93.83%

Source: PMC12528448, “Resistance to CDK7 inhibitors directed by acquired mutation of a conserved residue in cancer cells” (The EMBO Journal, 2025)
